Test results taken from PMC5424254, “Growth Trade-Offs Accompany the Emergence of Glycolytic Metabolism in Shewanella oneidensis MR-1” (Journal of Bacteriology, 2017).

Target: T1, NagK (GlcNAc kinase) (Shewanella oneidensis, UniProt Q8EBK6)
T1 sequence (Q8EBK6 2-300): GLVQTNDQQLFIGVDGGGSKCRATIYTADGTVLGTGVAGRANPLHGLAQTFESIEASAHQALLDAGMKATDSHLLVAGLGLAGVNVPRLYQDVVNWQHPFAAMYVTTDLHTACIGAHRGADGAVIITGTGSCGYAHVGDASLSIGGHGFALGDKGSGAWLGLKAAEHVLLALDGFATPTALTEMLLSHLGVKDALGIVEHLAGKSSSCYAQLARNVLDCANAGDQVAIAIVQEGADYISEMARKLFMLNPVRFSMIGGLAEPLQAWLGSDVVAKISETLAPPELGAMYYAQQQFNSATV
Test: ADP-Glo kinase assay (luminescence)
Format: biochemical
Details: ATP; 40 mM Tris-HCl, 20 mM MgCl2, 0.1 mg/ml BSA; 0.1 to 1 mM substrate

In the case of CC(=O)N[C@H]1C(O)O[C@H](CO)[C@@H](O)[C@@H]1O (stereo partly shown) [GlcNAc, N-acetylglucosamine], the “ADP-Glo kinase assay (luminescence)” value is reported as “NagK is able to phosphorylate glucose in addition to its known substrate, GlcNAc”.
